Experimental data taken from patent US20050192341A1, “Non-psychotropic cannabinoids for prevention of cognitive impairment” (priority 2002, published 2005).

How the values were obtained:
[1] = test system: individuals suffering from severe traumatic brain injury; conditions: severe traumatic brain injury patients; not significant statistically; cited from earlier work
Sprague-Dawley male rats [2] = experiment: Four vessel occlusion (4 VO) in rats, neurological score; format: in vivo, rat
Text: This model was used to test the ability of dexanabinol or related compounds to act as neuroprotectant when administered prior to surgery. The blood supply to the rat brain arrives via the two vertebral and two common carotid arteries. Transient occlusion of all four vessels results in global ischemia, as would occur during cardiac arrest in humans. Global ischemia results in neurological deficits, including short-term memory deficits, and a selective loss of neurons, including pyramidal cells, in the CA1 field of the hippocampus, similarly to the situation observed in MCI. The ability of compounds to reduce the neurological deficits and increase neuronal survival in this model is considered indicative of their potential in preventing brain damage related to cardiac arrest, and is also predictive for ischemic damages and MCI caused by surgery, for instance cardiac surgery performed or not under cardiopulmonary bypass. […] Transient ischemia causes irreversible injury to a few, specific populations of highly vulnerable neurons.
Sprague-Dawley male rats (180-400 g body weight, Anilab, Israel) were anesthetized using 4% halothane for induction and 1% halothane for maintenance, in a mixture of 70% N2O and 30% O2. Animals were submitted to four-vessel occlusion according to the procedure of Pulsinelli et al. (Pulsinelli W. A. et al., Stroke 10: 267, 1979) in a two-stage operation. On the first day the vertebral arteries were occluded. A midline skin incision was performed above the spinal cord behind the skull occipital bone. Muscles were separated and cut until the C1 vertebra was isolated. The alar foramina were located and the vertebral arteries were coagulated via the alar foramina. Muscles and skin were closed in two layers. On the same day, the common carotid arteries (CCA) were isolated through a central neck midline incision. A loose suture material was positioned around them and the skin was closed.
On the second day, the animals were lightly anesthetized using ether. The skin was opened and CCA were closed for 20 minutes with arterial clips. Animals were deprived of food, with free access to water, overnight between the two stages of the study. Loss of righting reflex was the principal criterion for assuring severe forebrain ischemia in the 4 VO model in the rat. Therefore, animals not showing this sign were not included in the study. […]
Animals were monitored for their general clinical appearance at predetermined time points: before vertebral occlusion; before and 5 hours after CCA occlusion; then 1, 2, and 3 days after CCA occlusion. Body weight was recorded at baseline and at each follow-up session.
The total neurological score was calculated by adding the results of all tests for each animal and the maximal score obtainable for normal animals is 16 points. […]

Sprague Dawley rats = experiment: Neuronal vacuolization and necrosis histopathology after single high dose injection in rats; format: in vivo, rat; conditions: for Average number of vacuoles / Average number of necrotic foci: males and females, all sections; for Average number of vacuoles / Number of animals with necrotic foci: dexanabinol 50 mg/kg i.v.; for Average number of vacuoles / Average number of necrotic foci / Number of animals with necrotic foci / Clinical signs post-dose: MK-801 5 mg/kg s.c.; for Average number of necrotic foci: dexanabinol 50 mg/kg i.v. in CREMOPHOR EL:ethanol; for Number of animals with necrotic foci: cingulated gyrus, males and females combined; for Clinical signs post-dose: study day 1, dexanabinol 50 mg/kg i.v. (undistinguishable from vehicle, transient)
Text: The purpose of this study was to characterize the potential of dexanabinol to protect against neuronal vacuolization and cell death in the retrosplenial and cingulated neocortex regions of the brain in Sprague Dawley rats following intravenous administration of a single high dose of […]. It has previously been reported that neuronal vacuolization and cell death are among the commonly detected adverse side effects of NMDA antagonists in rodents (Olney J. W. et al., Science 244: 1360-2, 1989).
Sprague Dawley rats (140-250 g body weight, Charles River Laboratory, Mich., USA) were maintained under controlled environmental conditions, with 12:12 hour light dark cycle, and had free access to food and water. The animals were acclimated for at least seven days prior to study day 1. Animals were randomly assigned to the following treatment groups: saline (negative control), CREMOPHOR EL®:ethanol (70:30 w/w respectively supplemented with 0.5% w/v dl-α-tocopherol and 0.01% w/v edetic acid; vehicle) and 50 mg/kg dexanabinol. For all groups the volume dosage was 10 ml/kg and the treatments were administered via bolus intravenous injection into the lateral tail vein of animals. CREMOPHOR EL®:ethanol and dexanabinol 50 mg/ml were diluted 1:10 into saline prior to injection. M-801 at a dose of 5 mg/kg administered subcutaneously at a volume dosage of 5 ml/kg was used as positive control, its vehicle being saline.
Each treatment group consisted of six males and six females, which were at first analyzed separately to assess gender influence. Clinical observations, including observations for mortality or moribundity, were recorded pretest, once daily, and when a change was noted during the twice-daily observations. Body weights were recorded pretest and predose on study day 1. Six animals per sex per group per time point were submitted for necropsy at approximately 4 and 12 hours post-dose, and 1, 3, and 7 days post-dose. At the predetermined time points, the animals were humanely euthanized via intraperitoneal injection of 100 mg/kg sodium pentobarbital to achieve deep anesthesia.
Whole body perfusion were performed using heparinized saline for approximately one minute followed by 10% neutral buffered fornalin for approximately eight to ten minutes on all animals. The calvarium was removed, leaving the brain in the cranial cavity. The heads (with the brain in the cranial cavity) or brains (removed only after 24 hours left in situ in 10% neutral buffered formalin) were placed into 10% neutral buffered formalin until further process toward pathological analysis.
The brains from all animals at all time points were processed and evaluated as follows. The brains from the 4 and 12 hours time point animals were removed and sectioned using a rat brain trimming matrix to yield two coronal sections including the posterior cingulated gyrus (retrosplenial area of the brain). All sections were embedded in glycol methacrylate, sectioned at approximately 2 microns, and stained with hematoxylin and eosin. Brains from the 1, 3 and 7 days post-dose animals were removed and sectioned to yield three coronal sections spanning the brain from the posterior cingulate gyrus and extending rostral to the level of the basal nuclei. These sections were embedded in paraffin and sectioned twice at approximately 5-8 microns, with one section stained with hematoxylin and eosin and the other with Fluoro-Jade B, which selectively stains dying neuronal cells. The slides were microscopically evaluated in a blinded fashion. No statistical analyses were performed.

Sprague-Dawley male rats [3] = experiment: Cognitive impairment assessment following 4 VO, Morris water maze; format: in vivo, rat
Experimental: One week after CCA occlusion, the cognitive impairment was measured using a Morris water maze apparatus. The ability of the animals to perform in this test is predictive of their learning and memory capacity. A circular metal pool 150 cm in diameter and 74 cm in height was filled with water at 25° C. to a height of 54 cm. A platform 10 cm in diameter was placed 2 cm below the water surface. The pool was divided (virtually) into 4 equal surface areas identified by arbitrary north, south, east and west coordinates. The platform was located in the middle of the southwest quadrant 25 cm from the pool rim. The swim path was monitored by video camera connected to a computer (View Point, France). […] Animals that found the hidden platform were allowed to stay on it for 30 seconds.
Animals were tested in nine consecutive trials one week following the 4 VO and the learning capacity was measured as the amount of time spent by the animal swimming before finding the hidden platform. Each trial was performed for 1 minute and there were 5 minute intervals between the trials. One day later, eight days post-occlusion, the animals were tested again in order to assess their memory.
Three groups of at least 8 animals each were tested in this study: 1) sham operated animals; 2) operated animals treated 15 minutes before CCA occlusion with HPCD vehicle; 3) operated animals treated 15 minutes before CCA occlusion with 8 mg/kg dexanabinol, prepared and injected intravenously as previously described in example 2.
The average latency time in seconds elapsed until platform localization was calculated for each treatment group as an average of three consecutive trials. […] During the first six trials dexanabinol treated animals learned similarly to vehicle treated animals.

Structure (SMILES)	Neurological outcome as assessed by the Galveston Orientation and Amnesia Test [1]	Time to full recovery of neurological score to sham animals levels (Sprague-Dawley male rats [2]; 8 mg/kg i.v. 15 minutes before CCA occlusion) [hours]	Decrease in neurological score (Sprague-Dawley male rats [2]; 5 hours after occlusion, 8 mg/kg i.v. 15 minutes before CCA occlusion, maximal score 16 points)	Neurological score compared with sham operated group (Sprague-Dawley male rats [2]; 48 hours post-occlusion, 8 mg/kg i.v.)	Neurological outcome compared with vehicle treated or operated untreated animals (Sprague-Dawley male rats [2]; from 24 hours post-occlusion on, 8 mg/kg i.v.)	Average number of vacuoles (Sprague Dawley rats; 4 hrs post-dosing)	Average number of vacuoles (Sprague Dawley rats; 12 hrs post-dosing)	Average number of necrotic foci (Sprague Dawley rats; Day 1 post-dosing)	Average number of necrotic foci (Sprague Dawley rats; Day 3 post-dosing)	Average number of necrotic foci (Sprague Dawley rats; Day 7 post-dosing)	Number of animals with necrotic foci (Sprague Dawley rats; Day 1 post-dosing)	Number of animals with necrotic foci (Sprague Dawley rats; Day 3 post-dosing)	Number of animals with necrotic foci (Sprague Dawley rats; Day 7 post-dosing)	Highest tolerated dose in rats (Sprague Dawley rats; single dose, to the first approximation) [mg/kg]	Clinical signs post-dose (Sprague Dawley rats)	Average time to localize the hidden platform (Sprague-Dawley male rats [3]; average over the ten trials measuring learning and memory, 8 mg/kg i.v., sham 34.8 seconds) [s]	Time less than sham operated animals to localize the hidden platform (Sprague-Dawley male rats [3]; average over the ten trials, 8 mg/kg i.v., difference not statistically significant) [s]	Reduction in average time for platform localization over vehicle treated animals (memory) (Sprague-Dawley male rats [3]; day 8 post-occlusion, 8 mg/kg i.v. 15 minutes before CCA occlusion) [%]	Reduction in average time for platform localization over vehicle control group (learning) (Sprague-Dawley male rats [3]; last three of nine trials, one week after 4 VO, 8 mg/kg i.v. 15 minutes before CCA occlusion)
CCCCCCC(C)(C)c1cc(O)c2c(c1)OC(C)(C)[C@H]1CC=C(CO)C[C@H]21 [Dexanabinol, 1,1-dimethyl-(3S,4S)-7-hydroxy-Δ^6-tetrahydrocannabinol]	trend existed for the dexanabinol treated patients to achieve better neurological outcome	≤ 72	about 4 points	not statistically different from the sham operated group	significantly better neurological outcome	None	None	0.5	0.6	>3	0/12	0/12	0/12	~50	prostration and decreased activity	30.8	4	~22	more than 42%
C[C@]12N[C@H](Cc3ccccc31)c1ccccc12 [MK-801, reference compound]	–	–	–	–	–	–	–	–	–	–	–	–	–	–	ataxia, tremors and prostration	–	–	–	–
